Test results taken from PubChem BioAssay (NCI).
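These data come from cells grown in 96-well plates and exposed to compound for 48 hours at five concentrations. TGI marks complete inhibition of growth.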

Experiments:
Test in all cases: NCI-60 cell line screen, 48 h
UO-31 renal = system: UO-31 renal
ACHN renal = system: ACHN renal
RPMI-8226 leukemia = system: RPMI-8226 leukemia
SW-620 colon = system: SW-620 colon
LOX IMVI melanoma = system: LOX IMVI melanoma
M14 melanoma = system: M14 melanoma
SK-MEL-2 melanoma = system: SK-MEL-2 melanoma
SNB-19 CNS = system: SNB-19 CNS
M19-MEL melanoma = system: M19-MEL melanoma
SF-539 CNS = system: SF-539 CNS
SR leukemia = system: SR leukemia
KM12 colon = system: KM12 colon
CCRF-CEM leukemia = system: CCRF-CEM leukemia
MALME-3M melanoma = system: MALME-3M melanoma
HOP-92 NSCLC = system: HOP-92 NSCLC
DLD-1 colon = system: DLD-1 colon
LXFL 529 NSCLC = system: LXFL 529 NSCLC
SK-MEL-28 melanoma = system: SK-MEL-28 melanoma
UACC-62 melanoma = system: UACC-62 melanoma
K-562 leukemia = system: K-562 leukemia
OVCAR-8 ovarian = system: OVCAR-8 ovarian
CAKI-1 renal = system: CAKI-1 renal
HCC-2998 colon = system: HCC-2998 colon
U251 CNS = system: U251 CNS
SF-268 CNS = system: SF-268 CNS
MOLT-4 leukemia = system: MOLT-4 leukemia
HT29 colon = system: HT29 colon
A498 renal = system: A498 renal
OVCAR-3 ovarian = system: OVCAR-3 ovarian
DMS 114 small cell lung = system: DMS 114 small cell lung
HCT-116 colon = system: HCT-116 colon
786-0 renal = system: 786-0 renal
NCI-H522 lung = system: NCI-H522 lung
HCT-15 colon = system: HCT-15 colon
SF-295 CNS = system: SF-295 CNS
A549 NSCLC = system: A549 NSCLC
HOP-62 NSCLC = system: HOP-62 NSCLC
IGROV1 ovarian = system: IGROV1 ovarian
NCI-H23 lung = system: NCI-H23 lung
COLO 205 colon = system: COLO 205 colon
SNB-75 CNS = system: SNB-75 CNS
SN12C renal = system: SN12C renal
OVCAR-5 ovarian = system: OVCAR-5 ovarian
HOP-18 NSCLC = system: HOP-18 NSCLC
TK-10 renal = system: TK-10 renal
RXF 393 renal = system: RXF 393 renal
OVCAR-4 ovarian = system: OVCAR-4 ovarian
SK-MEL-5 melanoma = system: SK-MEL-5 melanoma
SK-OV-3 ovarian = system: SK-OV-3 ovarian
HL-60(TB) leukemia = system: HL-60(TB) leukemia
NCI-H460 lung = system: NCI-H460 lung
EKVX NSCLC = system: EKVX NSCLC
SNB-78 CNS = system: SNB-78 CNS
NCI-H226 lung = system: NCI-H226 lung
UACC-257 melanoma = system: UACC-257 melanoma

Work on CC1(CO)OC(n2cnc3c(N)ncnc32)C(O)C1O (stereo not given) yielded a TGI (UO-31 renal) of over 100 µM, a TGI (ACHN renal) of over 100 µM and a TGI (RPMI-8226 leukemia) of over 100 µM. The TGI (SW-620 colon) was over 100 µM, the TGI (LOX IMVI melanoma) was over 100 µM and the TGI (M14 melanoma) was over 100 µM. The TGI (SK-MEL-2 melanoma) was over 100 µM, the TGI (SNB-19 CNS) was over 100 µM and the TGI (M19-MEL melanoma) was over 100 µM. It also gave a TGI (SF-539 CNS) of over 100 µM, a TGI (SR leukemia) of over 100 µM and a TGI (KM12 colon) of over 100 µM. It also gave a TGI (CCRF-CEM leukemia) of over 100 µM, a TGI (MALME-3M melanoma) of over 100 µM and a TGI (HOP-92 NSCLC) of over 100 µM. It also gave a TGI (DLD-1 colon) of over 100 µM, a TGI (LXFL 529 NSCLC) of over 100 µM and a TGI (SK-MEL-28 melanoma) of over 100 µM. The TGI (UACC-62 melanoma) was over 100 µM, the TGI (K-562 leukemia) was over 100 µM and the TGI (OVCAR-8 ovarian) was over 100 µM. The TGI (CAKI-1 renal) was over 100 µM, the TGI (HCC-2998 colon) was over 100 µM and the TGI (U251 CNS) was over 100 µM. It also gave a TGI (SF-268 CNS) of over 100 µM, a TGI (MOLT-4 leukemia) of over 100 µM and a TGI (HT29 colon) of over 100 µM. It also gave a TGI (A498 renal) of over 100 µM, a TGI (OVCAR-3 ovarian) of over 100 µM and a TGI (DMS 114 small cell lung) of over 100 µM. The TGI (HCT-116 colon) was over 100 µM, the TGI (786-0 renal) was over 100 µM and the TGI (NCI-H522 lung) was over 100 µM. The TGI (HCT-15 colon) was over 100 µM, the TGI (SF-295 CNS) was over 100 µM and the TGI (A549 NSCLC) was over 100 µM. It also gave a TGI (HOP-62 NSCLC) of over 100 µM, a TGI (IGROV1 ovarian) of over 100 µM and a TGI (NCI-H23 lung) of over 100 µM. It also gave a TGI (COLO 205 colon) of over 100 µM, a TGI (SNB-75 CNS) of over 100 µM and a TGI (SN12C renal) of over 100 µM. The TGI (OVCAR-5 ovarian) was over 100 µM, the TGI (HOP-18 NSCLC) was over 100 µM and the TGI (TK-10 renal) was over 100 µM. The TGI (RXF 393 renal) was over 100 µM, the TGI (OVCAR-4 ovarian) was over 100 µM and the TGI (SK-MEL-5 melanoma) was over 100 µM. The TGI (SK-OV-3 ovarian) was over 100 µM, the TGI (HL-60(TB) leukemia) was over 100 µM and the TGI (NCI-H460 lung) was over 100 µM.
With O=C(Nc1cccc([N+](=O)[O-])c1)/C(=N\NC(=O)c1ccncc1)c1nc2ccc([N+](=O)[O-])cc2[nH]c1=O the TGI (UO-31 renal) was over 100 µM, the TGI (ACHN renal) was over 100 µM and the TGI (RPMI-8226 leukemia) was over 100 µM. For the same molecule, the TGI (SW-620 colon) was over 100 µM, the TGI (LOX IMVI melanoma) was over 100 µM and the TGI (M14 melanoma) was over 100 µM. For the same molecule, the TGI (EKVX NSCLC) was over 100 µM, the TGI (SNB-78 CNS) was over 100 µM and the TGI (SK-MEL-2 melanoma) was over 100 µM. The TGI (SNB-19 CNS) was over 100 µM, the TGI (SF-539 CNS) was over 100 µM and the TGI (SR leukemia) was over 100 µM. It also gave a TGI (KM12 colon) of over 100 µM, a TGI (CCRF-CEM leukemia) of over 100 µM and a TGI (MALME-3M melanoma) of over 100 µM. The TGI (HOP-92 NSCLC) was over 100 µM, the TGI (LXFL 529 NSCLC) was over 100 µM and the TGI (SK-MEL-28 melanoma) was over 100 µM. It also gave a TGI (UACC-62 melanoma) of over 100 µM, a TGI (K-562 leukemia) of over 100 µM and a TGI (OVCAR-8 ovarian) of over 100 µM. It also gave a TGI (CAKI-1 renal) of over 100 µM, a TGI (HCC-2998 colon) of 93.8 µM and a TGI (U251 CNS) of over 100 µM. For the same molecule, the TGI (SF-268 CNS) was over 100 µM, the TGI (MOLT-4 leukemia) was over 100 µM and the TGI (HT29 colon) was over 100 µM. It also gave a TGI (A498 renal) of over 100 µM, a TGI (OVCAR-3 ovarian) of over 100 µM and a TGI (DMS 114 small cell lung) of over 100 µM. The TGI (HCT-116 colon) was over 100 µM, the TGI (NCI-H226 lung) was over 100 µM and the TGI (UACC-257 melanoma) was over 100 µM. The TGI (786-0 renal) was over 100 µM, the TGI (NCI-H522 lung) was over 100 µM and the TGI (HCT-15 colon) was over 100 µM. For the same molecule, the TGI (SF-295 CNS) was over 100 µM, the TGI (A549 NSCLC) was over 100 µM and the TGI (HOP-62 NSCLC) was over 100 µM. For the same molecule, the TGI (IGROV1 ovarian) was over 100 µM, the TGI (NCI-H23 lung) was over 100 µM and the TGI (COLO 205 colon) was over 100 µM. It also gave a TGI (SN12C renal) of over 100 µM, a TGI (OVCAR-5 ovarian) of over 100 µM and a TGI (RXF 393 renal) of over 100 µM. For the same molecule, the TGI (OVCAR-4 ovarian) was over 100 µM, the TGI (SK-MEL-5 melanoma) was over 100 µM and the TGI (SK-OV-3 ovarian) was over 100 µM. It also gave a TGI (NCI-H460 lung) of over 100 µM.
